Reference: patent US20210261621A1, “Preparation of Dilipid Polymixins and Use Thereof as Antimicrobial Adjuvants” (priority 2018, published 2021)
Like-named read-outs stand apart in the source and are kept apart here.

System: P. aeruginosa PAO1
Parameters: MICDrug / MICDrug in combo / MIC of adjuvant in combo: unit not given beside the values
Conditions: for MICDrug: antibiotic alone
Procedure: The potential of the dilipid polymyxins to serve as an adjuvant in combination with other antibiotics was evaluated against P. aeruginosa PAO1 strain (Tables 4 and 7-12). […] Checkerboard assays were performed with the dilipid polymyxins in combination with twenty-one clinically-used antibiotics. The panel included representatives from the β-lactam, carbapenem, tetracycline, aminoglycoside and fluoroquinolone antibiotic families. Other agents that are used to treat Gram-negative bacterial infection such as fosfomycin, trimethoprim and chloramphenicol were also included. […] Fractional inhibitory concentration (FIC) index was calculated for each combination to measure potential synergism between the two agents. FIC was obtained by dividing the MIC of antibiotic/adjuvant in combination by the MIC of antibiotic/adjuvant alone, while FIC index was calculated by the summation of FIC indices for the antibiotic and adjuvant. An FIC index of ≤0.5, 0.5<x≤4, or >4 denotes for synergistic, additive or antagonistic interaction, respectively. Initially, we assessed the adjuvant properties of PMBN against the panel of 21 antibiotics.
The assay was performed on 96-well plates as previously described. Briefly, the antibiotic at study was 2-fold serially diluted along the x-axis, while the adjuvant was 2-fold serially diluted along the y-axis to create a matrix in which each well consists of a combination of both at different concentrations. Overnight grown bacterial cultures were diluted in saline to 0.5 McFarland turbidity, followed by 1:50 dilution in MHB and inoculation on each well to a final concentration of approximately 5×10^5 colony forming units/mL. Wells containing only MHB with or without bacterial cells were used as positive or negative control, respectively. […] The fractional inhibitory concentration (FIC) of the antibiotic was calculated via dividing the MIC of antibiotic in the presence of adjuvant by the MIC of antibiotic alone. Similarly, the FIC of adjuvant was calculated via dividing the MIC of adjuvant in the presence of antibiotic by the MIC of adjuvant alone. The FIC index was obtained by the summation of both FIC values. The FIC index was then interpreted as synergistic, additive, or antagonistic for values of ≤0.5, 0.5<x<4, or ≥4, respectively.

[1] = antibiotic in combination with 1
[2] = antibiotic in combination with 2
[3] = antibiotic in combination with 3
[4] = antibiotic in combination with 4
[5] = antibiotic in combination with 5
[6] = antibiotic in combination with PMBN

| Molecule | MICDrug | MICDrug in combo [1] | MICDrug in combo [2] | MICDrug in combo [3] | MICDrug in combo [4] | MICDrug in combo [5] | MICDrug in combo [6] |
| --- | --- | --- | --- | --- | --- | --- | --- |
| CCN1CCN(C(=O)N[C@@H](C(=O)N[C@@H]2C(=O)N3[C@@H]2SC(C)(C)[C@@H]3C(=O)O)c2ccccc2)C(=O)C1=O [Piperacillin, reference compound] | 4 | (2) | (0.0625) | (2) | (4) | (2) | (1) |
| C=C[C@]1(C)C[C@@H](OC(=O)CO)[C@]2(C)[C@H](C)CC[C@]3(CCC(=O)[C@H]32)[C@@H](C)[C@@H]1O [Pleuromutilin, reference compound] | 512 | (4) | (4) | (8) | (4) | (2) | (16) |
| CO[C@H]1/C=C/O[C@@]2(C)Oc3c(C)c(O)c4c(O)c(c(/C=N/N5CCN(C)CC5)c(O)c4c3C2=O)NC(=O)/C(C)=C\C=C\[C@H](C)[C@H](O)[C@@H](C)[C@@H](O)[C@@H](C)[C@H](OC(C)=O)[C@@H]1C [Rifampicin, reference compound] | 16 | – | (8) | (8) | (0.25) | (1) | (0.0625) |
| [H]/N=C(/N)N[C@H]1[C@H](O)[C@@H](O)[C@H](O[C@@H]2O[C@@H](C)[C@](O)(C=O)[C@H]2O[C@@H]2O[C@@H](CO)[C@H](O)[C@@H](O)[C@@H]2NC)[C@@H](N/C(N)=N\[H])[C@@H]1O [Streptomycin, reference compound] | 16 | (8) | (4) | (16) | (16) | (8) | (8) |
| NC[C@H]1O[C@H](O[C@H]2[C@H](O)[C@@H](O[C@H]3O[C@H](CO)[C@@H](O)[C@H](N)[C@H]3O)[C@H](N)C[C@@H]2N)[C@H](N)C[C@@H]1O [Tobramycin, reference compound] | 1 | (1) | (1) | (1) | (1) | (1) | (1) |
| COc1cc(Cc2cnc(N)nc2N)cc(OC)c1OC [Trimethoprim, reference compound] | 128 | (16) | (8) | (16) | (0.25) | (16) | (8) |
| CN[C@H](CC(C)C)C(=O)N[C@H]1C(=O)N[C@@H](CC(N)=O)C(=O)N[C@H]2C(=O)N[C@H]3C(=O)N[C@H](C(=O)N[C@H](C(=O)O)c4cc(O)cc(O)c4-c4cc3ccc4O)[C@H](O)c3ccc(c(Cl)c3)Oc3cc2cc(c3O[C@@H]2O[C@H](CO)[C@@H](O)[C@H](O)[C@H]2O[C@H]2C[C@](C)(N)[C@H](O)[C@H](C)O2)Oc2ccc(cc2Cl)[C@H]1O [Vancomycin, reference compound] | 256 | (8) | (2) | (128) | (64) | (2) | (4) |
| Gentamicin [reference compound] | 2 | (2) | (4) | (2) | (2) | (4) | (2) |
